Experiments:
NHDF = assay: Cytotoxicity (MTS, 72 h) against normal human fibroblasts; assay type: cell-based; details: Homo sapiens, NHDF; MTS, 72 h incubation
Procedure: (§1) All of the synthesized compounds were tested for their antiproliferative activity against human colon cancer (Table 1). We used both the wild-type and p53-negative cell lines (HCT116^+/+ and HCT116^−/−, respectively). Mutations in the TP53 gene are present in more than 50% of all cancers and often specifically correspond to a difficult therapy, resistance or a bad prognosis[60]–[63]. The active compounds were additionally tested for their cytotoxicity against normal human fibroblasts. We used 5-fluorouracil (5-FLU), doxorubicin (DOX) and CP-31398 as the standards. 5-FLU is one of the first antimetabolites that was dedicated for cancer treatment and is still used for a wide range of cancers including colon carcinoma. Doxorubicin is a DNA topoisomerase II poison with a high intercalating potency, which is able to induce apoptosis through the p53 pathway. Although DOX has been described as being ineffective in some p53 mutants, its level of activity against the p53 null lines is similar. CP-31398, on the other hand, is an experimental drug in the clinical phase and its mechanism of action is through the reactivation some of p53 mutants. Its activity against the p53 null cell lines is greatly diminished and is actually lower than its cytotoxicity.
(§2) The human colon cancer cell line HCT116 wild type was obtained from ATCC and the normal human fibroblast cell lines NHDF were obtained from PromoCell. The human colon cancer cell line HCT116 with a p53 deletion (p53^−/−) was kindly provided by Prof. M. Rusin from the Maria Sklodowska-Curie Memorial Cancer Centre and Institute of Oncology in Gliwice, Poland[89]. The cells were grown as monolayer cultures in Dulbecco’s modified Eagle’s medium with the antibiotic gentamicin (200 μL/100 mL medium) in 75 cm^2 flasks (Nunc). The DMEM for the HCT116 were supplemented with 12% heat-inactivated fetal bovine serum (Sigma-Aldrich, St. Louis, MO, USA) and for NHDF with 15% non-inactivated fetal bovine serum (Sigma Aldrich, St. Louis, MO, USA). The cells were cultured under standard conditions at 37 °C in a humidified atmosphere at 5% CO2.
(§3) The cells were seeded in 96-well plates (Nunc) at a density of 5,000 cells/well (HCT116) and 4,000 cells/well (NHDF) and incubated at 37 °C for 24 h. The assay was performed following a 72 h incubation with varying concentrations of the compounds that were being tested. Then, 20 µL of CellTiter 96® AQueous One Solution-MTS (Promega) was added to each well (with 100 µL DMEM without phenol red) and incubated for 1 h at 37 °C. The optical densities of the samples were analyzed at 490 nm using a Synergy 4 multi-plate reader (BioTek, Winooski, VT, USA). The results are expressed as the percentage of the control and were calculated as the inhibitory concentration (IC50) values (using a GraphPad Prism 7). The IC50 parameter was defined as the compound concentration that was necessary to reduce the proliferation of cells to 50% of the untreated control. Each individual compound was tested in triplicate in a single experiment with each experiment being repeated three or four times.

HCT116^+/+ = assay: Antiproliferative assay (MTS, 72 h) on HCT116 wild type; assay type: cell-based, human; details: Homo sapiens, HCT-116; MTS, 72 h incubation; read-out: Activity IC50 HCT116^+/+
Procedure: as §1, §2, §3

HCT116^−/− = assay: Antiproliferative assay (MTS, 72 h) on HCT116 with p53 deletion; assay type: cell-based, human; details: for IC50: Homo sapiens, HCT-116, MTS, 72 h incubation
Procedure: as §1, §2, §3

| SMILES | melting point [°C] | IC50 (NHDF) [µM] | IC50 (HCT116^+/+) [µM] | IC50 (HCT116^−/−) [µM] | selectivity towards the p53 null cells (HCT116 p53^−/− vs wild type) (HCT116^−/−) |
| --- | --- | --- | --- | --- | --- |
| COc1ccc(Cl)c(NC(=O)c2ccc3ccccc3c2O)c1 [5p] | 159 to 161 | > 25 | 24.1 ± 2.58 | 19.3 ± 2.09 | – |
| O=C(Nc1cc(F)cc(C(F)(F)F)c1)c1ccc2ccccc2c1O [4×] | 165 to 167 | 24.1 ± 2.02 | 9.01 ± 0.45 | > 25 | – |
| O=C(Nc1ccc(Br)c(C(F)(F)F)c1)c1ccc2ccccc2c1O [7o] | 172 to 173 | > 25 | > 25 | 13.9 ± 3.75 | – |
| COc1ccc(C)c(NC(=O)c2ccc3ccccc3c2O)c1 [3h] | 128 to 130 | > 25 | 11.7 ± 3.81 | > 25 | – |
| O=C(Nc1cc(F)c(F)cc1F)c1ccc2ccccc2c1O [4j] | 201 to 204 | 24.52 ± 0.03 | 1.87 ± 0.35 | 4.75 ± 0.05 | – |
| O=C(Nc1cc(F)c(F)c(F)c1)c1ccc2ccccc2c1O [4l] | 242 to 247 | 10 ± 0.54 | 1.19 ± 0.31 | 1.42 ± 0.25 | – |
| O=C(Nc1ccc(Cl)c(C(F)(F)F)c1)c1ccc2ccccc2c1O [7n] | 173 to 175 | > 25 | 9.66 ± 3.17 | 18.7 ± 2.78 | – |
| O=C(Nc1ccc(F)c(F)c1F)c1ccc2ccccc2c1O [4i] | 173 to 175 | > 25 | 4.28 ± 0.66 | 4.43 ± 0.66 | – |
| O=C(Nc1ccc(F)cc1Cl)c1ccc2ccccc2c1O [5m] | 162 to 166 | > 25 | 7.57 ± 2.16 | 8.29 ± 2.92 | – |
| O=C(Nc1ccc(Br)cc1F)c1ccc2ccccc2c1O [4r] | 172 to 174 | > 25 | 15 ± 4.82 | 3.43 ± 0.69 | roughly 4.5 fold |
| COc1ccc([N+](=O)[O-])cc1NC(=O)c1ccc2ccccc2c1O [2h] | 215 to 218 | > 25 | 7.05 ± 1.75 | 7.42 ± 2.05 | – |
| O=C(Nc1cccc(C(F)(F)F)c1F)c1ccc2ccccc2c1O [4p] | 174 to 175 | 24.4 ± 2.51 | 6.5 ± 1.16 | 5.45 ± 1.72 | – |
| O=C(Nc1cc(Br)ccc1F)c1ccc2ccccc2c1O [4t] | 174 to 177 | > 25 | 11.9 ± 1.28 | 14 ± 2.2 | – |
| O=C(Nc1ccc(F)cc1F)c1ccc2ccccc2c1O [4d] | 185 to 187 | > 25 | 6.55 ± 0.83 | 11.4 ± 1.92 | – |
| O=C(Nc1cc(Cl)ccc1F)c1ccc2ccccc2c1O [4s] | 169 to 171 | > 25 | 8.66 ± 1.61 | 10.7 ± 1.73 | – |
| O=C(Nc1cc(F)ccc1F)c1ccc2ccccc2c1O [4e] | 153 to 155 | > 25 | 4.76 ± 0.76 | 15.1 ± 6.75 | – |
| O=C(Nc1c(Br)cc(C(F)(F)F)cc1Br)c1ccc2ccccc2c1O [6l] | 183 to 186 | 20.4 ± 1.16 | 9.37 ± 0.47 | 6.81 ± 2.66 | – |
| O=C(Nc1c(F)c(F)cc(F)c1F)c1ccc2ccccc2c1O [4m] | 160 to 163 | > 25 | 12 ± 0.92 | > 25 | – |
| O=C(Nc1cc(F)c(C(F)(F)F)cc1F)c1ccc2ccccc2c1O [4z] | 229 to 231 | 18.4 ± 0.91 | 4.22 ± 0.87 | 2.82 ± 0.77 | – |

Reference: publication PMC6476888, “Design and synthesis of anticancer 1-hydroxynaphthalene-2-carboxanilides with a p53 independent mechanism of action” (Scientific Reports, 2019)
